The text below walks through data of PubChem BioAssay AID248 (DTP/NCI, 2004).

Molecules are shown by their SMILES. Several values for one entry are separate records, joined by “and”; a condition that tells them apart may be missing. Equal values may be shown once. Toxic doses and inconclusive results are not listed.

In this assay the test system is L1210 leukemia ip in BDF1 mice, survival T/C. The experiment in a line: NCI In Vivo Anticancer Drug Screen. Data for tumor model L1210 Leukemia (intraperitoneal) in B6D2F1 (BDF1) mice. As to conditions: endpoint: mean survival time, higher = longer survival. An outline of the steps:
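Value reflects the ratio of survival in compound-treated mice to survival in vehicle-treated controls, with both groups carrying the same transplanted tumor.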

The mark [1] stands for this setting: dose: 25.0 mg/kg/injection, schedule: Q04DX003 (ip), vehicle: Klucel (hydroxypropylcellulose) (HPC).
Setting [2] is: dose: 50.0 mg/kg/injection, schedule: Q04DX003 (ip), vehicle: Klucel (hydroxypropylcellulose) (HPC).
Where [3] appears, read: dose: 100.0 mg/kg/injection, schedule: Q04DX003 (ip), vehicle: Klucel (hydroxypropylcellulose) (HPC).
Setting [4] is: dose: 200.0 mg/kg/injection, schedule: Q04DX003 (ip), vehicle: Klucel (hydroxypropylcellulose) (HPC).
Setting [5] is: dose: 100.0 mg/kg/injection, schedule: Q01DX009 (ip), vehicle: saline.
[6] abbreviates: dose: 100.0 mg/kg/injection, schedule: Q04DX003 (ip), vehicle: saline.
[7] abbreviates: dose: 200.0 mg/kg/injection, schedule: Q04DX003 (ip), vehicle: saline.
Where [8] appears, read: dose: 400.0 mg/kg/injection, schedule: Q01DX009 (ip), vehicle: saline.
Setting [9] is: dose: 400.0 mg/kg/injection, schedule: Q04DX003 (ip), vehicle: Klucel (hydroxypropylcellulose) (HPC).
Setting [10] is: dose: 100.0 mg/kg/injection, schedule: Q01DX009 (ip), vehicle: Klucel (hydroxypropylcellulose) (HPC).
Where [11] appears, read: dose: 100.0 mg/kg/injection, schedule: Q01DX009 (ip), vehicle: saline with Tween-80.
The mark [12] stands for this setting: dose: 200.0 mg/kg/injection, schedule: Q01DX009 (ip), vehicle: saline with Tween-80.
The mark [13] stands for this setting: dose: 400.0 mg/kg/injection, schedule: Q01DX009 (ip), vehicle: saline with Tween-80.
Setting [14] is: dose: 100.0 mg/kg/injection, schedule: Q04DX003 (ip), vehicle: saline with Tween-80.
Where [15] appears, read: dose: 200.0 mg/kg/injection, schedule: Q04DX003 (ip), vehicle: saline with Tween-80.

As to `CCCNS(=O)(=O)c1ccc(Cl)c([N+](=O)[O-])c1`, the T/C reads like this: (dose: 12.5 mg/kg/injection, schedule: Q04DX003 (ip), vehicle: Klucel (hydroxypropylcellulose) (HPC)) 100 % of control; under setting [1], 97 % of control; under setting [2], 100 % of control; under setting [3], 98 % of control; under setting [4], 103 % of control.

Take `O=S(=O)(Oc1ccc(Cl)cc1)c1ccc(Cl)cc1`: the T/C reads like this: under setting [5], 88 % of control; under setting [6], 103 % of control; under setting [7], 98 % of control; under setting [8], 90 % of control; (dose: 400.0 mg/kg/injection, schedule: Q04DX003 (ip), vehicle: saline) 103 % of control.

For `CN(C)C(=S)Oc1c(Cl)cc(Cl)cc1S(=O)(=O)F`, the T/C is 104 % of control under setting [3], 98 % of control under setting [4] and 98 % of control under setting [9].

Turning to `Cc1nc2[nH]cnc(=S)c2[nH]1`, the T/C reads like this: (dose: 100.0 mg/kg/injection, schedule: Q01DX001 (ip), vehicle: other) 107 % of control; (dose: 200.0 mg/kg/injection, schedule: Q01DX001 (ip), vehicle: other) 103 % of control.

In the case of `OCc1cc2ccccc2c2ccccc12`, the T/C by setting is: (dose: 222.0 mg/kg/injection, schedule: Q01DX Z (ip), vehicle: carboxymethylcellulose (CMC)) 96 % of control; (dose: 330.0 mg/kg/injection, schedule: Q01DX Z (ip), vehicle: carboxymethylcellulose (CMC)) 90 % of control; (dose: 500.0 mg/kg/injection, schedule: Q01DX Z (ip), vehicle: carboxymethylcellulose (CMC)) 93 % of control; (dose: 750.0 mg/kg/injection, schedule: Q01DX Z (ip), vehicle: carboxymethylcellulose (CMC)) 88 % of control.

Consider `CC(C)OC(=O)Oc1cccc2c1C(=O)c1ccccc1C2=O`, for which the T/C under setting [10] is 91 % of control; the T/C under setting [3] was 97 % of control; the T/C (dose: 200.0 mg/kg/injection, schedule: Q01DX009 (ip), vehicle: Klucel (hydroxypropylcellulose) (HPC)) was 91 % of control; the T/C under setting [4] was 93 % of control; the T/C under setting [9] is 104 % of control.

Take `Cc1ccc(C[As](C)(=O)O)cc1`: the T/C under setting [1] is 100 % of control, the T/C under setting [2] was 98 % of control and the T/C under setting [3] is 97 % of control.

`CCC(CC)(C1CCC(O)CC1)C1CCC(O)CC1` (centres undefined): the T/C (dose: 75.0 mg/kg/injection, schedule: Q01DX001 (ip), vehicle: carboxymethylcellulose (CMC)) is 93 % of control; the T/C (dose: 150.0 mg/kg/injection, schedule: Q01DX001 (ip), vehicle: carboxymethylcellulose (CMC)) is 91 % of control; the T/C (dose: 300.0 mg/kg/injection, schedule: Q01DX001 (ip), vehicle: carboxymethylcellulose (CMC)) was 89 % of control.

In the case of `N=C(N)SC(c1ccccc1)c1ccccc1`, the T/C by setting is: (dose: 25.0 mg/kg/injection, schedule: Q01DX001 (ip), vehicle: Klucel (hydroxypropylcellulose) (HPC)) 97 % of control; (dose: 50.0 mg/kg/injection, schedule: Q01DX001 (ip), vehicle: Klucel (hydroxypropylcellulose) (HPC)) 104 % of control; (dose: 100.0 mg/kg/injection, schedule: Q01DX001 (ip), vehicle: Klucel (hydroxypropylcellulose) (HPC)) 101 % of control; (dose: 100.0 mg/kg/injection, schedule: Q01DX001 (ip), vehicle: saline) 98 % of control.

With `O=C(Oc1ccccc1)c1ccc2ccccc2c1O`, the T/C was 100 % of control (dose: 100.0 mg/kg/injection, schedule: Q04DX002 (ip), vehicle: Klucel (hydroxypropylcellulose) (HPC)); 91 % of control (dose: 200.0 mg/kg/injection, schedule: Q04DX002 (ip), vehicle: Klucel (hydroxypropylcellulose) (HPC)); 100 % of control (dose: 400.0 mg/kg/injection, schedule: Q04DX002 (ip), vehicle: Klucel (hydroxypropylcellulose) (HPC)).

For `O=C(N/N=C\c1ccc([N+](=O)[O-])cc1)c1ccccc1`, the T/C reads like this: under setting [11], 97 % of control; under setting [12], 94 % of control; under setting [13], 93 % of control.

Take `O=C(Nc1cccc(C2=NCCCN2)c1)Nc1cc(C(=O)Nc2ccc(C3=NCCCN3)cc2)ccc1C(=O)Nc1ccc(C2=NCCCN2)cc1`: the T/C is, setting by setting: (dose: 0.47 mg/kg/injection, schedule: Q01DX Z (ip), vehicle: saline) 103 % of control; (dose: 0.94 mg/kg/injection, schedule: Q01DX Z (ip), vehicle: saline) 95 % of control; (dose: 1.88 mg/kg/injection, schedule: Q01DX Z (ip), vehicle: saline) 104 % of control; (dose: 3.75 mg/kg/injection, schedule: Q01DX Z (ip), vehicle: saline) 117 % of control and 265 % of control; (dose: 7.5 mg/kg/injection, schedule: Q01DX Z (oral), vehicle: saline) 98 % of control; (dose: 15.0 mg/kg/injection, schedule: Q01DX Z (ip), vehicle: saline) 96 % of control. The T/C runs as follows: (dose: 15.0 mg/kg/injection, schedule: Q01DX Z (oral), vehicle: saline) 104 % of control; (dose: 30.0 mg/kg/injection, schedule: Q01DX Z (oral), vehicle: saline) 104 % of control; (dose: 60.0 mg/kg/injection, schedule: Q01DX Z (oral), vehicle: saline) 104 % of control.

As for `C/C(=N\[N+](C)(C)C)c1ccc2ccccc2c1`, the T/C is 101 % of control (dose: 25.0 mg/kg/injection, schedule: Q01DX009 (ip), vehicle: Klucel (hydroxypropylcellulose) (HPC)); 101 % of control under setting [1]; 100 % of control (dose: 50.0 mg/kg/injection, schedule: Q01DX009 (ip), vehicle: Klucel (hydroxypropylcellulose) (HPC)); 105 % of control under setting [2]; 90 % of control under setting [10]; 95 % of control and 105 % of control under setting [3].

For `O=C(O)CP(=O)(O)O`, the T/C (dose: 75.0 mg/kg/injection, schedule: Q04DX003 (ip), vehicle: saline) was 102 % of control; the T/C (dose: 150.0 mg/kg/injection, schedule: Q04DX003 (ip), vehicle: saline) was 102 % of control; the T/C (dose: 300.0 mg/kg/injection, schedule: Q04DX003 (ip), vehicle: saline) was 93 % of control.

Turning to `CC(=O)ONCCc1ccc(S(=O)(=O)F)cc1`, the T/C under setting [3] was 105 % of control, the T/C under setting [4] was 96 % of control and the T/C under setting [9] is 98 % of control.

Take `CCCCOC(=O)c1ccccn1`: the T/C runs as follows: under setting [14], 99 % of control; under setting [15], 94 % of control.

On to `CCCCC(CC)COC(=O)CCC(CCC(=O)OCC(CC)CCCC)C(=O)OCC(CC)CCCC` (centres undefined), for which the T/C was 98 % of control (dose: 100.0 mg/kg/injection, schedule: Q04DX003 (ip), vehicle: saline sonified); 104 % of control (dose: 200.0 mg/kg/injection, schedule: Q04DX003 (ip), vehicle: saline sonified); 96 % of control (dose: 400.0 mg/kg/injection, schedule: Q04DX003 (ip), vehicle: saline sonified).

On to `O=C(O)CCCCc1ccccc1`, for which the T/C by setting is: under setting [11], 96 % of control; under setting [14], 100 % of control; under setting [12], 100 % of control; under setting [15], 91 % of control; under setting [13], 92 % of control; (dose: 400.0 mg/kg/injection, schedule: Q04DX003 (ip), vehicle: saline with Tween-80) 94 % of control.

For the molecule `O=C1NC2(CCCCC2)C(=O)N1CCN(CCO)CCO`, the T/C was 106 % of control (dose: 50.0 mg/kg/injection, schedule: Q01DX009 (ip), vehicle: saline); 109 % of control under setting [5]; 93 % of control (dose: 200.0 mg/kg/injection, schedule: Q01DX009 (ip), vehicle: saline); 91 % of control under setting [8].

Regarding `Cc1cc(CCN)c(C)c2c1sc1ccccc12`, the T/C (dose: 75.0 mg/kg/injection, schedule: Q01DX001 (ip), vehicle: saline) was 89 % of control.

On to `Cn1nnc(CC[N+]2(C)CCOCC2)n1`, for which the T/C runs as follows: under setting [6], 94 % of control; under setting [7], 96 % of control.
